Experiment: xn = mol fraction of the nth substance listed
Details: 101 kPa, Liquid; for viscosity: Falling or rolling sphere viscometry; for mass density: Vibrating tube method

CC(C)CO [2-methyl-1-propanol] + CC(C)(C)O
Details	mass density [kg/m3]	viscosity [mPa·s]
308.15 K, x1 = 0.1038	773.016	2.723
308.15 K, x1 = 0.2004	775.321	2.802
308.15 K, x1 = 0.3131	777.898	2.84
308.15 K, x1 = 0.3971	779.742	2.837
308.15 K, x1 = 0.4999	781.894	2.812
308.15 K, x1 = 0.6002	783.901	2.773
308.15 K, x1 = 0.6999	785.765	2.723
308.15 K, x1 = 0.7993	787.468	2.667
308.15 K, x1 = 0.8941	788.855	2.607
308.15 K, x1 = 1	790.12	2.382
313.15 K, x1 = 0.1038	767.906	2.19
313.15 K, x1 = 0.2004	770.357	2.263
313.15 K, x1 = 0.3131	773.062	2.312
313.15 K, x1 = 0.3971	774.993	2.327
313.15 K, x1 = 0.4999	777.281	2.329
313.15 K, x1 = 0.6002	779.435	2.317
313.15 K, x1 = 0.6999	781.451	2.294
313.15 K, x1 = 0.7993	783.274	2.264
313.15 K, x1 = 0.8941	784.79	2.229
313.15 K, x1 = 1	786.12	2.116
318.15 K, x1 = 0.1038	762.689	1.786
318.15 K, x1 = 0.2004	765.271	1.852
318.15 K, x1 = 0.3131	768.112	1.904
318.15 K, x1 = 0.3971	770.15	1.93
318.15 K, x1 = 0.4999	772.578	1.949
318.15 K, x1 = 0.6002	774.881	1.955
318.15 K, x1 = 0.6999	777.066	1.954
318.15 K, x1 = 0.7993	779.045	1.94
318.15 K, x1 = 0.8941	780.694	1.919
318.15 K, x1 = 1	782.06	1.861
323.15 K, x1 = 0.1038	757.428	1.479
323.15 K, x1 = 0.2004	760.154	1.536
323.15 K, x1 = 0.3131	763.135	1.59
323.15 K, x1 = 0.3971	765.278	1.619
323.15 K, x1 = 0.4999	767.832	1.643
323.15 K, x1 = 0.6002	770.282	1.658
323.15 K, x1 = 0.6999	772.615	1.664
323.15 K, x1 = 0.7993	774.761	1.662
323.15 K, x1 = 0.8941	776.498	1.655
323.15 K, x1 = 1	777.93	1.602
328.15 K, x1 = 0.1038	752.049	1.243
328.15 K, x1 = 0.2004	754.907	1.293
328.15 K, x1 = 0.3131	758.027	1.342
328.15 K, x1 = 0.3971	760.272	1.372
328.15 K, x1 = 0.4999	762.978	1.4
328.15 K, x1 = 0.6002	765.582	1.42
328.15 K, x1 = 0.6999	768.076	1.433
328.15 K, x1 = 0.7993	770.382	1.438
328.15 K, x1 = 0.8941	772.239	1.439
328.15 K, x1 = 1	773.73	–
333.15 K, x1 = 0.1038	746.582	1.057
333.15 K, x1 = 0.2004	749.576	1.099
333.15 K, x1 = 0.3131	752.825	1.145
333.15 K, x1 = 0.3971	755.183	1.173
333.15 K, x1 = 0.4999	758.038	1.202
333.15 K, x1 = 0.6002	760.796	1.224
333.15 K, x1 = 0.6999	763.457	1.241
333.15 K, x1 = 0.7993	765.918	1.251
333.15 K, x1 = 0.8941	767.911	1.257
333.15 K, x1 = 1	769.44	–
338.15 K, x1 = 0.1038	741.045	0.9089
338.15 K, x1 = 0.2004	744.179	0.9461
338.15 K, x1 = 0.3131	747.58	0.9857
338.15 K, x1 = 0.3971	750.026	1.013
338.15 K, x1 = 0.4999	753.002	1.042
338.15 K, x1 = 0.6002	755.897	1.064
338.15 K, x1 = 0.6999	758.701	1.081
338.15 K, x1 = 0.7993	761.298	1.094
338.15 K, x1 = 0.8941	763.412	1.105
338.15 K, x1 = 1	765.07	–
343.15 K, x1 = 0.1038	735.409	0.7889
343.15 K, x1 = 0.2004	738.697	0.8213
343.15 K, x1 = 0.3131	742.239	0.8569
343.15 K, x1 = 0.3971	744.793	0.8812
343.15 K, x1 = 0.4999	747.895	0.9085
343.15 K, x1 = 0.6002	750.924	0.9302
343.15 K, x1 = 0.6999	753.891	0.9494
343.15 K, x1 = 0.7993	756.647	0.9642
343.15 K, x1 = 0.8941	758.895	0.9753
343.15 K, x1 = 1	760.61	–

— the NIST ThermoML archive (doi:10.1021/je400423u)
